`CC(C)(C)c1nc2c(Cl)ccc(-n3c(=O)cc(C(F)(F)F)n(N)c3=O)c2o1` yielded a melting point of 104 to 106 °C. `CCOC(=O)c1ncc2c(c1COC)c1c(OS(=O)(=O)C(F)(F)F)cccc1n2S(=O)(=O)C(F)(F)F` displayed a melting point of 60 to 62 °C. To `N=C(Cc1nc2cnc3ccc(Cl)cc3c2n1-c1ccccc1Cl)NO` belongs 114 °C. For the molecule `COc1ccc(S(=O)(=O)Nc2cccc(C)c2NC(=O)c2cccnc2)cc1`, the melting point is 207 to 209 °C. Molecule `COC(c1ccc(NC(=O)c2c(C(F)(F)F)nn(C)c2C)cc1CC(C)C)(C(F)(F)F)C(F)(F)F` registered a melting point of 138 to 139 °C.

Molecule `C=C(C1=C(CCC(=O)O)C(O)CC1O)c1ccccc1` (configuration not stated) yielded a melting point of 124 to 126 °C. In the case of `CCCCOC(=O)c1cccc2c1-c1ccccc1C2=C(C#N)C#N`, the melting point was 99 to 100 °C. Turning to `O=S(=O)(c1ccccc1)n1ccc2c(Cl)ncnc21`, the melting point lay within 163 to 167 °C. With `CC(=O)C(=Cc1cccc([N+](=O)[O-])c1)C(=O)OC(C)CCl` (configuration not stated), the melting point lay within 95 to 96 °C. Molecule `N#CCCNC(=O)c1cccc(-c2ccc3ccn(-c4ccc(Cl)cc4Cl)c3n2)c1` gave a melting point of 215 to 216 °C.

Molecule `COc1ccccc1N1CCN(S(=O)(=O)c2ccc([N+](=O)[O-])cc2)CC1` displayed a melting point of 202 to 204 °C. Molecule `CCOC(=O)c1cc(N)c(N)nc1C(=O)OCC` registered a melting point of 143 to 146 °C.

With `CC(C)(C)OC(=O)C(Nc1ccccc1)c1ccc(Cl)c(Cl)c1` (racemic), the melting point came out at 94 °C. To `Cc1c(C)c2c(c(C)c1OCC=Cc1ccccc1)C(c1ccc(C(C)C)cc1)C(C)(C)O2` (configuration not stated) belongs 106 to 107 °C. As for `CCCNc1nnc(Cc2c(Cl)cncc2Cl)c2ccc(OC)cc12`, the figure is 222 to 223 °C; as for `COc1ccc(S(=O)(=O)N2C(=O)C(c3ccccc3OC)(N3C[C@H](OCC(=O)NC(C)(CO)CO)C[C@H]3C(=O)N(C)C)c3cc(Cl)ccc32)c(OC)c1` (some centres not stated), 154 °C; as for `Cn1c(COc2ccc(CC3SC(=O)NC3=O)cc2)nc2ccc(Oc3ccc4cccc(NC(=O)NS(=O)(=O)c5ccccc5)c4c3)cc21` (configuration not stated), 199 to 205 °C. `OCC(CO)Oc1ccc(Cl)cc1` returned a melting point of 62 to 64 °C.

In the case of `CC(C)n1nc(-c2c(-c3ccccc3)nn3ccc(N4CCN(Cc5ccccc5)CC4)cc23)ccc1=O`, the melting point lay within 136 to 138 °C.

As to `CC(C)(C)NC(=O)C1(O)CC(C)(C)NC(C)(C)C1`, the melting point was 134 to 136 °C. In turn, `O=C1NC(=O)C(Cc2ccc(OCc3cccc(-c4ccccc4)c3)cc2)S1` (configuration not stated) gave a melting point of 109 to 111 °C. As for `Cn1c(-c2ccc(Cl)cc2)cc(=O)c(C(=O)O)c1-c1ccc(Cl)cc1`, the figure is 187 to 190 °C; as for `CN(C)c1ccc([N+](=O)[O-])c(C(OC(=O)C(Cl)(Cl)Cl)c2ccccc2)c1[N+](=O)[O-]` (configuration not stated), 129 to 130 °C; as for `CCN1CCN(c2cc3c(cc2Cl)c(=O)c(C(=O)O)cn3CC)CC1`, 245 to 248 °C. For the molecule `O=c1c2ccc(OCC3CO3)cc2oc2ccc3cccc(O)c3c12` (configuration not stated), the melting point lay in the range of 191 to 193 °C. The molecule `CCn1nc2c(N)nc3cnccc3c2c1CC(C)(C)O` yielded a melting point of 277 to 279 °C. Turning to `CSC(Cc1cnn(-c2c(Cl)cc(C(F)(F)F)cc2Cl)n1)SC`, the melting point lay in the range of 97 to 98 °C. Molecule `O=C(O)CCc1oc(N2CCN(c3ccccc3)CC2)nc1-c1ccc(Cl)cc1` registered a melting point of 177 to 178 °C. As for `c1ccc2c(c1)OCC(CCc1ncc[nH]1)O2` (configuration not stated), the melting point is 159 to 160 °C. To `CC1SC(=S)N(C)N=C1c1ncc(Cl)cc1F` (configuration not stated) belongs 107 to 112 °C; to `COc1ccc(S(=O)(=O)C2(C(=O)NO)CCN(Cc3ccc(-c4ccccn4)cc3)CC2)cc1`, 214 °C. `Clc1ncnc(Cl)c1Cl` showed a melting point of 50 to 52 °C. The molecule `O=C(O)C(Cc1n[nH]c2ccccc12)NC(=O)C(CS)C(F)(F)F` (configuration not stated) showed a melting point of 218 to 220 °C. Consider `COc1ccc(S(=O)(=O)C2(C(=O)NO)CCN(Cc3ccc(F)cc3)CC2)cc1`, for which the melting point fell in the range of 176 to 178 °C. In turn, `O=c1cc(CN2CCOCC2)oc(-c2ccc(O)cc2)c1` yielded a melting point of 162 to 164 °C. For `CC(Cl)CCC(=O)c1ccccc1` (configuration not stated), the melting point was in the range of 28 to 30 °C. For the molecule `Cn1ccnc1Sc1ccc(Nc2c(C#N)cnc3cc(/C=C/CCOC4CCCCO4)ccc23)cc1Cl` (configuration not stated), the melting point lay in the range of 217 to 220 °C.

`CCCCCCCC1=CC(=O)N(c2ccccc2)C1=CBr` came in with a melting point of 63 to 65 °C. As for `CC(=O)c1c(N)ncn1C1c2ccccc2CC1(C)C` (configuration not stated), the figure is 174 to 175 °C. Take `CC(O)c1ccc(NS(C)(=O)=O)c(Sc2ccc(Cl)cc2Cl)c1` (configuration not stated): the melting point fell in the range of 91 to 94 °C. The molecule `COc1ccc(-c2nc(-c3cccn3CC(=O)O)sc2-c2ccc(OC)cc2)cc1` gave a melting point of 198 to 200 °C.

For the molecule `COc1cccc(CC(=O)O)c1OCCCc1cc(OC(C)C)nn1Cc1ccc(Cl)cc1C`, the melting point is 108 to 109 °C. Regarding `CC(C)c1ccc(N(Cc2cnn(Cc3ccccc3)c2)C(=O)C2CCCc3c(O)cccc32)cc1` (configuration not stated), the melting point was found to be 130 °C. Molecule `Fc1ccc(-c2ncn(CCCSc3ccccc3)c2-c2ccncc2)cc1` gave a melting point of 98 to 99 °C. `N#Cc1c(N2CCc3ccccc3CC2)nc2n(c1=O)CCCC2` yielded a melting point of 136 to 140 °C. In turn, `CCC[C@H](NC(=O)[C@H](C)N)C(=O)N[C@@H](C)P(=O)(O)O` returned a melting point of 268 to 270 °C. Take `Clc1ccc(-c2ccc(OCCCBr)cc2)cc1`: the melting point is 103 to 105 °C. `CON=C(N)Nc1nc(C)nc(OC)n1` came in with a melting point of 142 °C. As for `Cc1sc(S(N)(=O)=O)cc1NC(=O)c1cnn2c(C(F)F)cc(-c3ccc(C(F)(F)F)cc3)nc12`, the figure is 313 °C; as for `NC(=S)C=Cc1ccc(SC(F)(F)F)cc1`, 143 to 144 °C; as for `Cc1sc2c(c1C)C(c1ccc(Cl)cc1)=NC(CC(=O)Nc1ncccn1)c1nnc(C)n1-2` (configuration not stated), 251 to 253 °C.

In the case of `CC(=O)SCc1ccc(I)cc1`, the melting point lay within 40 to 41 °C. In the case of `COc1ccc(SCc2ccccc2)c(Cl)c1Cl`, the melting point fell in the range of 116 to 117 °C. `Cc1[nH]c2ccc(CCOS(C)(=O)=O)cc2c1C(=O)OCc1ccccc1` gave a melting point of 122 to 124 °C. For `COC=C1C(=O)NC(=O)c2ccc(OC)cc21`, the melting point lay within 245 to 247 °C. As to `NC(=O)C1(Nc2ccccc2)CCN(C2CCC(c3ccc(F)cc3)(c3ccc(F)cc3)CC2)CC1`, the melting point lay within 224 to 227 °C. Consider `Cc1cccc(S(=O)(=O)C2(CC#Cc3ccc(Cl)cc3)SC(=O)NC2=O)n1` (configuration not stated), for which the melting point was 104 to 106 °C. In the case of `CN1CC[C@@H]2CC(=O)c3cc(F)ccc3[C@H]2C1` (relative stereo), the melting point was over 250 °C. `CC(C)(C)OC(=O)COc1cc(NC(=O)OC(C)(C)C)c(NC(=O)CC(=O)c2cccc(-n3ccnc3)c2)cc1-c1ccc(F)cc1` yielded a melting point of 82 to 85 °C. To `Clc1ccc(-c2nc(CCCCCc3nnn[nH]3)oc2-c2ccc(Cl)cc2)cc1` belongs 100 °C; to `CCOCc1nc2c(N)nc3cc(-c4ccsc4)ccc3c2n1CC(C)C`, 187 to 189 °C; to `COc1cc(OC)nc(C(C(=O)O)C(C)C)n1` (configuration not stated), 99 to 101 °C. Take `Fc1ccc(Cn2c(NC3CCN(CCOc4ccc5ccccc5n4)CC3)nc3ccccc32)cc1`: the melting point came to 150 °C. Molecule `NN=C(c1ccccc1)c1cc(Cl)ccc1N` registered a melting point of 133 to 134 °C. To `CCCCCCCC(=O)CCCCCC(=O)N[C@@H](C)C(=O)OC` belongs 61 to 64 °C; to `CC(C)(C#N)c1c(Cl)cc([N+](=O)[O-])cc1Cl`, 80 °C. As for `ClCCCc1nnnn1C1CCCCC1`, the figure is 82 to 85 °C; as for `O=C1c2ccccc2CN1CCCCSc1ccncc1`, 57 to 58 °C. Molecule `COc1ccc(-c2cccc3c2N(S(=O)(=O)c2ccc(OC)cc2)CC3)cc1` returned a melting point of 176 to 177 °C.

In turn, `Cc1ccc2c(c1)N(C1CC1)CNS2(=O)=O` registered a melting point of 157 to 158 °C. `CS(=O)(=O)c1cccc(C2=C(c3ccccc3)C(=O)N(c3ccc(F)cc3)C2)c1` came in with a melting point of 207 to 209 °C. Regarding `CCOC(=O)N[C@@H]1Cc2ccccc2[C@H]1Nc1ccccc1C(=O)OC` (relative stereo), the melting point fell in the range of 108 to 110 °C. As for `CCc1ccc2[nH]c(=O)[nH]c(=O)c2c1`, the figure is 271 to 274 °C; as for `O=C1c2cccc3cccc(c23)C(=O)N1CCCCCCBr`, 95 to 96 °C; as for `CCCCCCCCCCCCCCc1ccc(O)c(CC)c1`, 45.5 to 46.5 °C. `COc1ccc(CN(C)CCCOc2ccc(NC(=O)c3cccc4c(=O)c5cccc(C)c5[nH]c34)cc2)cc1OC` registered a melting point of 160 °C. Turning to `CCOC(=O)c1c(O)c2cccnc2n(C)c1=O`, the melting point lay in the range of 158 to 160 °C. As for `C#Cc1sc(C2=NOC(c3cc(Cl)cc(Cl)c3)(C(F)(F)F)C2)cc1C` (configuration not stated), the figure is 105 to 107 °C; as for `COC(=O)c1ccc(OCCCN(C(C)=O)c2ccc(Cl)cc2)cc1`, 68 to 69 °C. In turn, `CN(C)C(=O)N(N=Cc1ccc(OC(F)(F)C(F)F)cc1)C(=N)NN=Cc1ccc(OC(F)(F)C(F)F)cc1` came in with a melting point of 142 to 144 °C. To `CN(CCO)c1ccc(C=O)cc1` belongs 72 °C; to `COc1cc(-c2nnc3n2CCC[C@]3(Oc2cc(F)c(F)c(F)c2)C(C)(C)O)ccc1-c1cnc(C)o1`, 188 °C.

`Cc1nnc(-c2cccc(I)c2)s1` showed a melting point of 86 to 89 °C. Regarding `CCc1nnc(-c2ccc(OC)cc2)n1-c1ccc([N+](=O)[O-])cc1`, the melting point was found to be 178 °C. As for `COc1ccc(C2CNC(=O)O2)cc1OCc1ccccc1` (configuration not stated), the melting point lay in the range of 83 to 91 °C. In turn, `O=C(O)CCCCCOc1cccc(OCc2ccccc2)c1` registered a melting point of 72 to 73 °C. For `OC(C#CI)(c1ccc(-c2ccccc2)cc1)c1cccc(Cl)c1` (configuration not stated), the melting point lay within 99 to 100 °C.

Usually melting point stands for the temperature, or range, at which the solid turns liquid.
